In US11389473B2, “Magnesium-containing oxytocin formulations and methods of use” (Tonix Pharmaceuticals Holding Corp., priority 2015, dated 2022):

Columns and labels:
[1] = tested on: rat model of facial thermal nociception; test: Rat model of facial thermal nociception (cheek withdrawal latency to radiant heat); type: in vivo; settings: for analgesic effect (elevation in latency to withdrawal): 15-300 min
Description: The heat from a projector lamp was focused on the pre-shaved cheek of rats and the intensity was varied to obtain a withdrawal response with a latency of between 6.5 and 8.5 seconds. The intensity applied to achieve such latencies was recorded for each animal. Once stable/acceptable baseline values were obtained, the average latencies for each rat were calculated. After baseline cheek withdrawal latencies were determined for all rats, each rat received a single nasal administration of either normal saline, 15% magnesium chloride in water, or 1% magnesium lactate in water according to the method developed by Frey (Thorne, et al. Neuroscience., 127: 481-496 (2004)). Briefly, rats (under urethane anesthesia) were placed in a supine position with a rolled pad (2×2 gauze) inserted under the dorsal neck to extend the head back toward the supporting surface. The upper surface of the neck was kept horizontal throughout the dosing procedure to maintain the drug solution in the nasal cavity and minimize dripping down the nasopharynx. A 6 μL drop of the respective drug solution was delivered off the tip of a small pipette and presented to the nares on the left side of the rat while occluding the opposite nares. One drop was administered every 2 minutes, alternating between each nares (thus amounting to a four minute interval between doses to the same nares). Each nostril received 4 drops, totaling a combined volume of 48 μL (8 drops of 6 μL each). Drug solutions were coded in order to keep the experimenter blinded as to the substances delivered. Left cheek withdrawal latencies in response to radiant heat stimulation were then measured over the next 3 hours. Withdrawal latencies were measured prior to nasal administration and at 1, 2, and 3 hours post-treatment.
(§1) One of 4 concentrations of dibasic magnesium citrate (1:1 Mg/citrate) was applied to rats and the effects of these applications on responses to noxious thermal stimulation of the face were assessed as described above. Each rat received a single nasal administration of 3, 6, 10, or 12% magnesium citrate in water (6 rats/group) according to the method described above. Left cheek withdrawal latencies in response to radiant heat stimulation were then measured over the following 300 minutes. Withdrawal latencies were measured prior to nasal administration and at 15, 30, 45, 60, 120, 180, 240, and 300 min post-treatment.
as §1, with “3 doses” for “4 concentrations”, “oxytocin in buffered saline” for “dibasic magnesium citrate (1:1 Mg/citrate)”, “1, 4,” for “3, 6, 10,”, “8 μg oxytocin” for “12% magnesium citrate”, “aqueous solution” for “water”
Aqueous solutions containing a combination of magnesium citrate at one of 3 concentrations with oxytocin at one of 3 doses were applied nasally in rats and changes in withdrawal response latency were measured as above. Each rat received a single nasal administration of 1, 4, or 8 μg of oxytocin in aqueous solution containing 3, 6, or 12% magnesium citrate according to the method described above. Left cheek withdrawal latencies in response to radiant heat stimulation were then measured over the following 300 minutes. Withdrawal latencies were measured prior to nasal administration and at 15, 30, 45, 60, 120, 180, 240, and 300 min post-treatment.
Difference scores were generated for each time point after dosing by comparing the respective withdrawal response latency to pre-dosing (baseline) values.

[2] = tested on: rat paw inflammation model; test: Rat paw inflammation model (complete Freund's adjuvant, forepaw force withdrawal threshold); type: in vivo; settings: nasal
Description: The analgesic effect of nasally administered oxytocin on cervical nerve-associated inflammatory pain was assessed in a rat paw inflammation model (Martin et al., Pain 1999, 82:199-205). Oxytocin was nasally administered at one of three doses (193, 385 or 768 micrograms in 48 microliters) and force withdrawal thresholds in grams were determined following mechanical stimulation of the inflamed area (forepaw), at regular intervals over the next three hours, and compared against those of vehicle (phosphate buffered saline) treated rats. Injection of complete Freund's adjuvant into the left forepaw of rats produced a robust inflammation of that paw as well as a substantial decrease in the force necessary to elicit a withdrawal response (mechanical allodynia).

[3] = tested on: patient with chronic tension-type headache; test: Patient with chronic tension-type headache, neck and shoulder pain taking oxytocin sprays; type: in vivo, human
Source text: A patient with chronic tension-type headache reported having intense pain in their head, neck and shoulders. The patient took 4 sprays of 7.5 IU/spray oxytocin for a dose of 30 units, at which point their headache pain was gone, but the neck and shoulder pain remained. […] Thus, a higher dose was necessary to affect neck and shoulder pain than was necessary to inhibit head pain in the same patient.

[4] = 1% in water, single nasal administration
[5] = 4 sprays of 7.5 IU/spray, dose of 30 units

With `[Cl-].[Cl-].[Mg+2]` [magnesium chloride] the “analgesia at 2 and 3 hours after dosing” value ([1]; 15% in water, single nasal administration) was “analgesia continuing” and the “analgesic effect compared to nasal saline treated rats” value ([1]; 15% in water, single nasal administration, 1 hour) was “strong analgesic effect”.

In the case of `CC(O)C(=O)[O-].CC(O)C(=O)[O-].[Mg+2]` (centres unmarked) [magnesium lactate], the analgesic effect [1, 4] is reported as “mild analgesic effect”, the “withdrawal latencies at the 2 and 3 hour time points” value [1, 4] is reported as “still substantially elevated” and the “rise in withdrawal response latency” value ([1]; 1% in water, single nasal administration, 48 μL) is reported as “approximately 1.5 s”.

For `CC[C@H](C)[C@@H]1NC(=O)[C@H](Cc2ccc(O)cc2)NC(=O)[C@@H](N)CSSC[C@@H](C(=O)N2CCC[C@H]2C(=O)N[C@@H](CC(C)C)C(=O)NCC(N)=O)NC(=O)[C@H](CC(N)=O)NC(=O)[C@H](CCC(N)=O)NC1=O` [oxytocin, Cys-Tyr-Ile-Gln-Asn-Cys-Pro-Leu-Gly], the withdrawal latency ([1]; 1 μg nasally applied) was “no increase”, the “analgesic effect (elevation in latency to withdrawal)” value ([1]; 1, 4 or 8 μg in aqueous solution, single nasal administration) was “clear dose-dependent analgesic effect” and the “latency to withdrawal in response to noxious cheek heating” value ([1]; 4 and 8 μg nasally applied) was “robust increase in latency to withdrawal”. For the same compound, the “effect on mechanical allodynia resulting from inflammation” value ([2]; higher 2 doses, 385 or 768 micrograms in 48 microliters) was “statistically significant partial reversal of the mechanical allodynia”, the “effect on pain thresholds (force withdrawal threshold, inflamed forepaw)” value ([2]; lowest dose, 193 micrograms in 48 microliters) was “ineffective” and the headache pain [3, 5] was “gone”. For the same compound, the “neck and shoulder pain” value [3, 5] was “remained” and the “neck and shoulder pain” value ([3]; additional 8-10 sprays, or a total of 60-75 IU) was “receded and ceased”.

In the case of magnesium citrate, the “analgesic effect (elevation in latency to withdrawal)” value ([1]; 3, 6, 10 or 12% in water, single nasal administration) is reported as “clear dose-dependent analgesic effect”.
